Test results from US5879683A, “Antibacterial agent containing tea extract or active fraction thereof and β-lactam antibiotic” (priority 1994, dated 1999).
Values joined by “and” are separate entries in the source; they are usually repeats but may differ in a detail not shown here. Identical values can stand only once. “Also recorded” adds a separate entry of the source.

Columns and labels:
Type in all cases: cell-based, Staphylococcus aureus
MSSA = experiment: MIC of benzylpenicillin in presence and absence of tea extract, MSSA (activity III)
Procedure: (§1) Strains were grown overnight at 37° C. in IsoSensitest™ broth (ISB, Unipath CM 473), and 1 μl amounts (c. 10^6 colony forming units (cfu) were inoculated on to six series of plates of IsoSensitest™ agar containing doubling dilutions of methicillin (1024- 1 μg/ml) alone and in the presence of tea extract in various sub-inhibitory concentrations, viz final dilutions of 1/40, 1/70, 1/100, 1/200 and 1/300.
(§2) Plates were incubated at 30° for 48 h. The minimum inhibitory concentration (MIC) of antibiotic was calculated for each sample, as a measure of activity II.
The 40 strains tested in Examples 1 and 2 above, together with 9 strains of methicillin-sensitive Staph. aureus (MSSA) were tested for their resistance to benzylpenicillin in the presence or absence of tea extract, with a view to measuring activity III. The procedures used were those described in Example 1, except that benzylpenicillin replaced methicillin. Both MSSA and MRSA have natural resistance to benzylpenicillin through the production of β-lactamase.

S. aureus USA#18 = experiment: Activity II bioassay (anti-PBP2' action), agar well diffusion with methicillin 10 μg/ml; conditions: for activity II: pure compound at 1 mg/ml
From the text: (§3) Activities I (inhibitory/killing actions against bacteria), II (anti-PBP2' action) and III (action against β-lactamase) were quantitated by bioassay, using large plates (14 cm diameter circular, or 25×25 cm square) containing IsoSensitest agar (Unipath CM 471) to a depth of about 4 mm. surface-seeded with S. aureus. Assay strains and additions to agar varied according to the activity being assayed (Table 4).
(§4) 6 mm wells were cut into the agar and filled with appropriate dilutions (in duplicate) of solutions of the material to be assayed. Following overnight incubation, diameters of inhibition zones were measured, and plots made of (log concentration) vs zone diameter. MNIC was calculated by extrapolating the regression line to zone diameter=6 mm; it was expressed ether as a concentration (μg/ml) or an activity (reciprocal of concentration in mg/ml).

S. aureus Oxford = experiment: Activity I bioassay (inhibitory/killing action), agar well diffusion; conditions: pure compound at 1 mg/ml
From the text: as §3, §4

[1] = tested on: high level MRSA (20 strains of MRSA); experiment: MIC of methicillin alone and in presence of tea extract, agar dilution, high level MRSA (activity II); conditions: strain no. is first number of line
Procedure: A 2% extract of crushed leaf Japanese "Sencha" tea was made in boiling water, and filtered through a Millipore filter. This extract contains about 14.7 mg/ml of tea.
Sodium methicillin (SmithKline Beecham) and vancomycin hydrochloride (Lilly Industries) were Laboratory Reference preparation.
IsoSensitest agar (Unipath CM 471) was supplemented with 20 g NaCl/L.
as §1, §2

low level MRSA = experiment: MIC of methicillin alone and in presence of tea extract, low level MRSA (activity II); conditions: strain no. is first number of line
Procedure: as §1, §2
A further 20 strains of low level MRSA were tested for activity II according to the procedures described in Example 1.

MRSA = experiment: Methicillin MIC in presence of sub-inhibitory vancomycin (control); conditions: sub-inhibitory vancomycin in place of tea
Procedure: A similar experiment was done using methicillin diluted in a series of sub-inhibitory concentrations of vancomycin, namely 0.5, 0.28, 0.2, 0.1 and 0.07 μg/l.
as §2

Row | SMILES | activity II (S. aureus USA#18) | activity I (S. aureus Oxford) | activity II, pure compounds (S. aureus USA#18) | further results
1 | CC1(C)S[C@@H]2[C@H](NC(=O)Cc3ccccc3)C(=O)N2[C@H]1C(=O)O [benzylpenicillin] | – | – | – | MIC (MSSA; Staphylococcus aureus, 48 h, read-out: MIC of benzylpenicillin, alone, MSSA, strain no. is first number of line): > 512 µg/mL; MIC of benzylpenicillin, alone (MSSA; strain no. is first number of line): 512 µg/mL and 256 µg/mL
2 | O=C(/C=C/c1ccc(O)c(O)c1)O[C@@H]1C[C@](O)(C(=O)O)C[C@@H](O)[C@H]1O [chlorogenic acid] | no evidence of activity I or II | no evidence of activity I or II | – | –
3 | O=c1c(O)c(-c2ccc(O)c(O)c2)oc2cc(O)cc(O)c12 [Quercitin, quercitin] | – | – | no activity II | –
4 | Cn1cnc2c1c(=O)[nH]c(=O)n2C [theobromine] | no evidence of activity I or II | no evidence of activity I or II | – | –
5 | COc1cccc(OC)c1C(=O)N[C@@H]1C(=O)N2[C@@H]1SC(C)(C)[C@@H]2C(=O)O [methicillin] | – | – | – | MIC of methicillin, alone ([1]; no tea): 512 µg/mL; MIC of methicillin, +T/300 ([1]; tea extract 1/300): 512 µg/mL; MIC of methicillin, alone (low level MRSA): 32 µg/mL and 64 µg/mL
6 | Oc1cc(O)c2c(c1)O[C@H](c1cc(O)c(O)c(O)c1)[C@H](O)C2 [EGC, Epigallocatechin] | – | – | no activity II | –
7 | Cn1c(=O)c2[nH]cnc2n(C)c1=O [theophylline] | no evidence of activity I or II | no evidence of activity I or II | – | –
8 | O=c1c(O)c(-c2ccc(O)cc2)oc2cc(O)cc(O)c12 [kaempferol] | – | – | no activity II | –
9 | CN[C@H](CC(C)C)C(=O)N[C@H]1C(=O)N[C@@H](CC(N)=O)C(=O)N[C@H]2C(=O)N[C@H]3C(=O)N[C@H](C(=O)N[C@H](C(=O)O)c4cc(O)cc(O)c4-c4cc3ccc4O)[C@H](O)c3ccc(c(Cl)c3)Oc3cc2cc(c3O[C@@H]2O[C@H](CO)[C@@H](O)[C@H](O)[C@H]2O[C@H]2C[C@](C)(N)[C@H](O)[C@H](C)O2)Oc2ccc(cc2Cl)[C@H]1O [vancomycin] | – | – | – | effect of vancomycin on methicillin MIC / synergy (MRSA): no synergistic effect whatever; also recorded: no reduction in methicillin MIC
10 | Oc1cc(O)c2c(c1)O[C@H](c1ccc(O)c(O)c1)[C@H](O)C2 [Epicatechin, epicatechin] | no evidence of activity I or II | no evidence of activity I or II | – | –
11 | O=C(O)c1cc(O)c(O)c(O)c1 [gallic acid] | no evidence of activity I or II | no evidence of activity I or II | – | –
12 | O=C(O[C@@H]1Cc2c(O)cc(O)cc2O[C@@H]1c1cc(O)c(O)c(O)c1)c1cc(O)c(O)c(O)c1 [EGCG, epigallocatechin gallate] | – | – | no activity II | –
